In patent US20260256792A1, “TREATMENT OF CHRONIC SPONTANEOUS URTICARIA BY ADMINISTERING (R)-2-[3-[4-AMINO-3-(2-FLUORO-4-PHENOXY-PHENYL)PYRAZOLO[3,4-D]PYRIMIDIN-1-YL]PIPERIDINE-1-CARBONYL]-4-METHYL-4-[4-(OXETAN-3-YL)PIPERAZIN-1-YL]PENT-2-ENENITRILE” (priority 2023, published 2026):

System: moderate-to-severe chronic spontaneous urticaria (CSU)
Experiment: Phase 2 CSU study: urticaria activity score over 7 days (UAS7)
Assay type: in vivo, human
Conditions: Omalizumab-Naïve
From the text: The study comprises a 12 week, randomized, double-blind, placebo-controlled, multi-center, dose-ranging efficacy and safety phase, followed by a 40 week open label extension (OLE) phase (see FIG. 1). The study consists of three phases and an optional OLE phase. […] Clinically, CSU is characterized by the spontaneous and recurrent appearance of pruritic hives. The proposed primary endpoints were the UAS7 at Week 12 in EU and EU reference countries and the ISS7 in the US. Regardless of where a participant was from, all assessments were the same. The UAS7 score is a composite score containing both the HSS7 and the ISS7. This allowed a global assessment of the two key components of urticaria: hives and itch. […] The UAS is a validated PRO measure. […] The daily UAS scores range from 0 to 6 point/day. […] Patients were to complete the UAS using the e-diary. […] The following secondary endpoints were to be analyzed using the same approach as for the primary endpoint: • Change from baseline in UAS7 at Week 4 • Change from baseline in UAS7 at Week 12 (for US and US reference countries) • Change from baseline in ISS7 at Week 12 (except US and US reference countries) • Change from baseline in HSS7 at Week 12 The following responder secondary endpoints were to be analyzed using the Cochran-Mantel-Haenszel test adjusted by region: • Proportion of participants with UAS7<6 at Week 12 • Proportion of participants with UAS7=0 at Week 12 Participants who received selected prohibited medications and/or rescue medications were to be considered as non-responders for time points after the medication usage. For other participants, all available data including those collected during the off-treatment period were to be used to determine the responder/non-responder status. Missing data were to be considered as non-responders.

[1] = Ethnicity Non-Hispanic, 400 mg TID
[2] = History of angioedema No, 400 mg BID
[3] = History of angioedema No, 400 mg QPM
[4] = History of angioedema No, 400 mg TID
[5] = History of angioedema Yes, 400 mg BID
[6] = History of angioedema Yes, 400 mg QPM
[7] = History of angioedema Yes, 400 mg TID
[8] = Race All the Others, 400 mg BID
[9] = Race All the Others, 400 mg QPM
[10] = Race All the Others, 400 mg TID
[11] = Region Eastern Europe, 400 mg BID
[12] = Region Eastern Europe, 400 mg QPM
[13] = Region Eastern Europe, 400 mg TID
[14] = Region Latin America, 400 mg BID
[15] = Region Latin America, 400 mg QPM

With `CC(C)(C=C(C#N)C(=O)N1CCC[C@@H](n2nc(-c3ccc(Oc4ccccc4)cc3F)c3c(N)ncnc32)C1)N1CCN(C2COC2)CC1` [rilzabrutinib, (R)-2-[3-[4-amino-3-(2-fluoro-4-phenoxy-phenyl)pyrazolo[3,4-d]pyrimidin-1-yl]piperidine-1-carbonyl]-4-methyl-4-[4-(oxetan-3-yl)piperazin-1-yl]pent-2-enenitrile] the “Change from Baseline in UAS7 at Week 12: Mean (SD)” value (shortened to “Change from Baseline in UAS7 … (SD)”) (Ethnicity Non-Hispanic, 400 mg QPM) was −10.78 (9.25), the “Change from Baseline in UAS7 at Week 12: LS Mean (SE)” value (shortened to “Change from Baseline in UAS7 … (SE)”) [1] was −19.24 (2.48) and the “Change from Baseline in UAS7 … (SD)” value [1] was −22.02 (10.28). For the same molecule, the “Change from Baseline in UAS7 … (SD)” value (Gender Female, 400 mg BID) was −13.23 (11.66), the “Change from Baseline in UAS7 … (SD)” value (Gender Female, 400 mg QPM) was −10.93 (9.28) and the “Change from Baseline in UAS7 … (SD)” value (Gender Female, 400 mg TID) was −20.41 (11.94). For the same molecule, the “Change from Baseline in UAS7 … (SE)” value (Gender Male, 400 mg BID) was −16.67 (3.54), the “Change from Baseline in UAS7 … (SD)” value (Gender Male, 400 mg BID) was −16.87 (13.20) and the “Change from Baseline in UAS7 … (SE)” value (Gender Male, 400 mg QPM) was −8.84 (4.15). For the same molecule, the “Change from Baseline in UAS7 … (SD)” value (Gender Male, 400 mg QPM) was −9.58 (10.13), the “Change from Baseline in UAS7 … (SD)” value (Gender Male, 400 mg TID) was −12.72 (5.65) and the “Change from Baseline in UAS7 … (SE)” value [2] was −15.01 (2.39). For the same molecule, the “Change from Baseline in UAS7 at Week 12: LS Mean Diff vs. placebo (95% CI)” value (“Change from Baseline in UAS7 … (95% CI)” for short) [2] was −5.13 (−12.18, 1.92), the “Change from Baseline in UAS7 … (SD)” value [2] was −17.10 (12.56) and the “Change from Baseline in UAS7 … (SE)” value [3] was −7.72 (2.58). The “Change from Baseline in UAS7 … (95% CI)” value [3] was 2.16 (−5.19, 9.52), the “Change from Baseline in UAS7 … (SD)” value [3] was −9.12 (7.74) and the “Change from Baseline in UAS7 … (SE)” value [4] was −17.97 (2.40). The “Change from Baseline in UAS7 … (95% CI)” value [4] was −8.09 (−15.14, −1.03), the “Change from Baseline in UAS7 … (SD)” value [4] was −20.20 (12.00) and the “Change from Baseline in UAS7 … (SE)” value [5] was −11.58 (3.69). The “Change from Baseline in UAS7 … (95% CI)” value [5] was −1.91 (−11.17, 7.35), the “Change from Baseline in UAS7 … (SD)” value [5] was −8.60 (9.01) and the “Change from Baseline in UAS7 … (SE)” value [6] was −11.20 (2.97). The “Change from Baseline in UAS7 … (95% CI)” value [6] was −1.53 (−9.72, 6.65), the “Change from Baseline in UAS7 … (SD)” value [6] was −13.08 (11.63) and the “Change from Baseline in UAS7 … (SE)” value [7] was −15.33 (3.68). The “Change from Baseline in UAS7 … (95% CI)” value [7] was −5.66 (−14.82, 3.50), the “Change from Baseline in UAS7 … (SD)” value [7] was −16.58 (10.23) and the “Change from Baseline in UAS7 … (SE)” value [8] was −11.33 (3.66). For the same molecule, the “Change from Baseline in UAS7 … (95% CI)” value [8] was −4.82 (−14.87, 5.24), the “Change from Baseline in UAS7 … (SD)” value [8] was −11.25 (10.32) and the “Change from Baseline in UAS7 … (SE)” value [9] was −8.43 (3.32). The “Change from Baseline in UAS7 … (95% CI)” value [9] was −1.92 (−11.55, 7.72), the “Change from Baseline in UAS7 … (SD)” value [9] was −9.59 (9.91) and the “Change from Baseline in UAS7 … (SE)” value [10] was −14.94 (3.44). The “Change from Baseline in UAS7 … (95% CI)” value [10] was 8.43 (−18.08, 1.23), the “Change from Baseline in UAS7 … (SD)” value [10] was −14.86 (9.62) and the “Change from Baseline in UAS7 … (SE)” value (Race White, 400 mg BID) was −15.38 (2.37). For the same molecule, the “Change from Baseline in UAS7 … (95% CI)” value (Race White, 400 mg BID) was −4.73 (−11.30, 1.84), the “Change from Baseline in UAS7 … (SD)” value (Race White, 400 mg BID) was −15.92 (12.79) and the “Change from Baseline in UAS7 … (SE)” value (Race White, 400 mg QPM) was −9.37 (2.37). The “Change from Baseline in UAS7 … (95% CI)” value (Race White, 400 mg QPM) was 1.28 (−5.33, 7.88), the “Change from Baseline in UAS7 … (SE)” value (Race White, 400 mg TID) was −17.97 (2.44) and the “Change from Baseline in UAS7 … (95% CI)” value (Race White, 400 mg TID) was −7.33 (−13.95, −0.70). The “Change from Baseline in UAS7 … (SD)” value (Race White, 400 mg TID) was −20.70 (11.84), the “Change from Baseline in UAS7 … (SE)” value (Region Asia, 400 mg BID) was −11.32 (3.76) and the “Change from Baseline in UAS7 … (95% CI)” value (Region Asia, 400 mg BID) was −4.86 (−15.18, 5.46). The “Change from Baseline in UAS7 … (SD)” value (Region Asia, 400 mg BID) was −11.25 (10.32), the “Change from Baseline in UAS7 … (SE)” value (Region Asia, 400 mg QPM) was −9.00 (3.50) and the “Change from Baseline in UAS7 … (SD)” value (Region Asia, 400 mg QPM) was −9.59 (9.91). The “Change from Baseline in UAS7 … (SE)” value (Region Asia, 400 mg TID) was −14.25 (3.99), the “Change from Baseline in UAS7 … (95% CI)” value (Region Asia, 400 mg TID) was −7.78 (−18.32, 2.76) and the “Change from Baseline in UAS7 … (SE)” value [11] was −6.34 (10.64). For the same molecule, the “Change from Baseline in UAS7 … (95% CI)” value [11] was 13.37 (−19.79, 46.54), the “Change from Baseline in UAS7 … (SD)” value [11] was −20.14 (18.13) and the “Change from Baseline in UAS7 … (SE)” value [12] was −5.35 (5.65). The “Change from Baseline in UAS7 … (95% CI)” value [12] was 14.37 (−6.40, 35.15), the “Change from Baseline in UAS7 … (SD)” value [12] was −5.79 (5.45) and the “Change from Baseline in UAS7 … (SE)” value [13] was −25.97 (6.17). The “Change from Baseline in UAS7 … (95% CI)” value [13] was −6.26 (−24.55, 12.03), the “Change from Baseline in UAS7 … (SD)” value [13] was −21.88 (11.40) and the “Change from Baseline in UAS7 … (SE)” value [14] was −9.26 (3.71). The “Change from Baseline in UAS7 … (95% CI)” value [14] was 2.62 (−7.19, 12.43), the “Change from Baseline in UAS7 … (SD)” value [14] was −10.23 (11.81) and the “Change from Baseline in UAS7 … (SE)” value [15] was −10.74 (3.14). For the same molecule, the “Change from Baseline in UAS7 … (95% CI)” value [15] was 1.14 (−7.86, 10.15).
